PMC7377376, “Drug targeting CYP2E1 for the treatment of early-stage alcoholic steatohepatitis” (PLoS ONE, 2020)

What was measured:
[1] = target: T1, human cytochrome P450 2E1 (Homo sapiens, UniProt P05181); experiment: Steady-state p-nitrophenol oxidation, CYP2E1 inhibition in SUPERSOMES; assay type: biochemical
T1 construct: purchased BD Biosciences
Description: Initial velocities of the oxidation of p-nitrophenol (p-NP) to p-nitrocatechol by human cytochrome P450 2E1 were determined by measuring the absorption at 535 nm or 546 nm to determine product formation as described before.
Alternatively, 100 mM HEPES pH 7.6 was additionally used for the enzyme kinetic measurements. A final concentration of either 50 nM enzyme in form of SUPERSOMES™ from BD Biosciences or microsomes in case of cell culture experiments was added. Reaction was initiated by adding 500 μM (enzyme kinetic measurements) or 0.1 mM (cell culture experiments) NADPH after preincubation at 37° C and stopped by adding 20% trichloroacetic acid (TCA) after 30 minutes to ensure linearity of product formation. The protein concentration for the microsomal fraction was determined by Bradford assay to calculate the results expressed as units of specific activity defined as the amount of enzyme that consumes 1 μmol/L of NADPH per hour per microgram of protein. Inhibitor stock solutions were prepared in 0.1% DMSO and diluted to a final DMSO concentration of 0.003% in the reaction mixture at most to avoid enzyme inhibition by this solvent. Inhibitory constants (Ki) were calculated by non-linear fitting of initial velocities. Maximum inhibition could not be achieved since final inhibitor concentrations were limited by DMSO.
Supplementary file pone.0235990.s002.tif: S2 Fig CYP2E1 inhibition by data base inhibitors. To ascertain whether an imidazole containing compound is already commercially available and better suited for development as a drug can-didate, we performed a large virtual library screening of the ZINK database. We found 14,738 hits. The 5,261 commercially available compounds could be classified as 4,710 synthetic and 551 natural molecules. After docking and final scoring process, the seven best synthetic and the three best natural candidates were purchased and tested in vitro for their potential to inhibit CYP2E1 activity. Different concentrations of these compounds dissolved in DMSO were added to 110 μM p-Nitrophenol in 100 mM HEPES buffer pH 7.6 and SUPERSOMES™ with 50 nM human CYP 2E1 to calculate relative activity values. […] 20 μM corresponds to a DMSO volume of 0.02% (v/v). (TIF) Click here for additional data file.

ethanol-fed Wistar rats [2] = experiment: Liver and serum lipid parameters of ethanol-fed rats; assay type: in vivo, rat; conditions: for liver cholesterol decrease compared to disease group / reduction of ethanol effect on hepatic cholesterol / reduction of ethanol effect on hepatic triglycerides / liver phospholipids decrease compared to disease group / liver triglycerides decrease compared to disease group / reduction of ethanol effect on hepatic phospholipids: liver; for reduction of ethanol effect on hepatic triglycerides: average over 0.4/4/40 mg/kg b.w. (UDCA 40 mg/kg), oral, 10 weeks; for liver phospholipids decrease compared to disease group / liver triglycerides decrease compared to disease group / reduction of ethanol effect on hepatic phospholipids / reduction of ethanol effect on serum triglycerides / serum triglycerides decrease compared to disease group: average over doses (UDCA 40 mg/kg)
Source text: (§1) A total of 68 female Wistar rats (Institute of Pharmacology and Biochemistry Breeding House, Minsk, Belarus) aged 80–90 days and weighting 180–200 g at the beginning of the experiments were used in the study. Each rat group (n = 6–8) was housed in a separate cage and had free access to the liquid diet during the full study period. Prior to the study, the animals were habituated for seven days to the cage conditions and experimental handling. The rats were maintained in a controlled experimental environment (20–25°C, 40–50% humidity, 12 h light per day, room with a 12-h light/dark cycle).
(§2) Rats were divided into ten groups characterized by the diet and the test compounds (S1 Table). Group 1 is the first control group in which a normal solid standard diet was fed for 12 weeks. All other groups received the liquid Lieber-DeCarli (LDC) diet (S2 Table), which combines food and drink in a liquid manner. It was prepared by ssniff Spezialdiäten GmbH, Soest. The addition of maltodextrin to this diet should compensate the pure caloric effect of ethanol, whereby 1.77 g maltodextrin replaces 1 g ethanol. The calorie value of both the control and ethanol diets was the same: 35% calories from fat, 11% from carbohydrates, 18% from protein and 36% from ethanol.
(§3) In the first two weeks rats of all groups–with the exception of group 1 –were fed with LDC diet plus maltodextrin in an appropriate amount to adapt the animals to the liquid diet. Group 2 is the second control group in which the isocaloric diet was administered for further 10 weeks until the end of the experiment. […] The test compounds I-ol, I-an and UDCA were dissolved in a 0.8% aqueous HPMC gel to obtain the appropriate concentrations: (1) I-ol with 0.4, 4 and 40 mg/kg b. w. (2) I-an with 0.4, 4 and 40 mg/kg b. w. (3) UDCA with 40 mg/kg b. w. Rats of group 2 and 3 received only HPMC as a placebo. The LDC diets were fed ad libitum and their intake per cage was controlled daily. The corresponding bottles were stored in the cages from 08:00 a. m. until 06:00 p. m. and replaced by drinking water bottles overnight until 08:00 a. m. in the next morning. Every day at the same time, the test compounds or only HPMC were administered intragastrically by oral gavage with an administration volume of 2 ml/kg b. w. After ten weeks of treatment, the rats were anesthetized with an intraperitoneal injection of a 5% pentobarbital solution and then killed by aorta scarification. Their livers were dissected and liver pieces frozen and stored in liquid nitrogen. A part of the liver was fixed for histological investigations. Blood was collected before sacrifice, centrifuged for serum preparation and finally stored in liquid nitrogen.
(§4) The serum marker enzyme activities, alanine aminotransferase (ALT), aspartate aminotransferase (AST), alkaline phosphatase (AP) and gamma-glutamyltransferase (γ-GT) as well as triglycerides and bilirubin were measured according to manufacturer’s instructions using standard commercial kits from Lachema (PLIVA-Lachema Diagnostika, Czech Republic). Serum concentrations of leptin, adiponectin and TNF-alpha were analyzed using commercial ELISA test kits: BioCat GmbH (Heidelberg, German) for adiponectin and TNF-alpha, BioVendor Laboratory Medicine Inc. (Brno, Czech Republic) for leptin. Insulin serum concentration was determined by radioimmunoassay using the commercially available kit RIO-insulin-PG-J125 (IBOCH, Minsk, Belarus). Glucose serum concentration was determined by the Accu-Check Active blood glucose testing system from Roche-Diagnostics GmbH (Mannheim, Germany).
Lipids were extracted with a chloroform: methanol mixture (2:1 v/v). Neutral lipids and phospholipids were separated into classes by thin-layer chromatography (TLC). Lipid fractions (triglycerides, cholesterol and its fractions) were measured in extracts from scraped spots by routine methods using the appropriate commercial kits. […]

ethanol-fed Wistar rats [3] = experiment: Serum liver enzyme activities of ethanol-fed rats; assay type: in vivo, rat; conditions: for reduction of ethanol effect on γ-GT activity: UDCA 40 mg/kg; for reduction of ethanol effect on ALT activity: average over 0.4/4/40 mg/kg b.w.; for γ-GT activity above the reference value of healthy animals: highest concentration
Source text: as §1, §2, §3, §4

[4] = average over doses (UDCA 40 mg/kg)

T1 sequence (P05181 whole entry): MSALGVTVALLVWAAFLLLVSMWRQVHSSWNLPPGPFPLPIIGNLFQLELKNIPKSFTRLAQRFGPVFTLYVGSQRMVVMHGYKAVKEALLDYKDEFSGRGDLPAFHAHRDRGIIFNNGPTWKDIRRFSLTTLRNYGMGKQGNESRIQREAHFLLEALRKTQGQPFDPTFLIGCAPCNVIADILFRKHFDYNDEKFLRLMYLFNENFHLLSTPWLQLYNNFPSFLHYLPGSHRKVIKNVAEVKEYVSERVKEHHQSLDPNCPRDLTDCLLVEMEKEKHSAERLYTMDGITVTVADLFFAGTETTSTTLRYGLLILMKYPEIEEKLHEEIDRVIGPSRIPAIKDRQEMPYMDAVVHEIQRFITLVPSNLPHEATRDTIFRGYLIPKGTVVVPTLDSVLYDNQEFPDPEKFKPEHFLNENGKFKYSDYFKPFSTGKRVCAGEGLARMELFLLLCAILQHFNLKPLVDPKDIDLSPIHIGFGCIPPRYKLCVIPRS

SMILES	Ki value (in words) [1]	liver cholesterol decrease compared to disease group (ethanol-fed Wistar rats [2]; UDCA 40 mg/kg)	reduction of ethanol effect on hepatic cholesterol (ethanol-fed Wistar rats [2]; UDCA 40 mg/kg)	reduction of ethanol effect on hepatic triglycerides (ethanol-fed Wistar rats [2]) [%]	liver phospholipids decrease compared to disease group (ethanol-fed Wistar rats [2]) [%]	liver triglycerides decrease compared to disease group (ethanol-fed Wistar rats [2]) [%]	reduction of ethanol effect on hepatic phospholipids (ethanol-fed Wistar rats [2])	reduction of ethanol effect on serum VLDL (ethanol-fed Wistar rats [2]; serum, UDCA 40 mg/kg) [%]	serum VLDL decrease compared to disease group (ethanol-fed Wistar rats [2]; serum, average over doses) [%]	reduction of ethanol effect on serum triglycerides (ethanol-fed Wistar rats [2]; serum) [%]	serum triglycerides decrease compared to disease group (ethanol-fed Wistar rats [2]; serum) [%]	reduction of ethanol effect on γ-GT activity (ethanol-fed Wistar rats [3]) [%]	reduction of ethanol effect on ALT activity (ethanol-fed Wistar rats [3]) [%]	ALT activity decrease compared to disease group (ethanol-fed Wistar rats [3]; [4]) [%]	AST activity decrease compared to disease group (ethanol-fed Wistar rats [3]; [4]) [%]	reduction of ethanol effect on AST activity (ethanol-fed Wistar rats [3]; [4]) [%]	γ-GT activity decrease compared to disease group (ethanol-fed Wistar rats [3]; [4]) [%]	γ-GT activity above the reference value of healthy animals (ethanol-fed Wistar rats [3]) [%]	AST activity above the reference value of healthy animals (ethanol-fed Wistar rats [3]; lowest concentration) [%]	other results
CCCCCCCCCCCCn1ccnc1 [I-an, 1-Imidazolyldodecane]	nanomolar range	11%	82%	73	20	41	completely eliminated	59	18	83	41	60	59	24	11	48	33	12	6	inhibitory effect on CYP2E1 (in words) ([1]; human CYP2E1 SUPERSOMES): lower affinity; reduction of ethanol effect on serum LDL cholesterol (ethanol-fed Wistar rats [2]; serum, UDCA 40 mg/kg): 70%; serum LDL cholesterol decrease compared to disease group (ethanol-fed Wistar rats [2]; serum, average over doses): 24%; AP activity decrease compared to disease group (ethanol-fed Wistar rats [3]; [4]): 29%; reduction of ethanol effect on alkaline phosphatase (AP) activity (ethanol-fed Wistar rats [3]; on average (UDCA 40 mg/kg)): 96%
OCCCCCCCCCCCCn1ccnc1 [I-ol]	nanomolar range	no influence	no influence	71	13	40	65%	55	17	91	44	68	70	29	14	60	37	28	6	reduction of ethanol effect on serum LDL cholesterol (ethanol-fed Wistar rats [2]; serum, lowest concentration): 61%; ALT activity (in words) (ethanol-fed Wistar rats [3]; lowest concentration): complete restoration of the basic activity; AP activity decrease compared to disease group (ethanol-fed Wistar rats [3]; lowest concentration): 27%; reduction of ethanol effect on alkaline phosphatase (AP) activity (ethanol-fed Wistar rats [3]; lowest concentration): 87%
